From patent US8153651B2, “Amide derivatives as ion-channel ligands and pharmaceutical compositions and methods of using the same” (Evotec AG, priority 2007, dated 2012)
Read-outs that look alike come from different tables or passages of the source.

Biological target: T1, hVR1 (Homo sapiens, UniProt Q8NER1)
T1 construct: expressed in transfected cells; host or cells: T-REx System cell line (Invitrogen Cat# R710-07), called 'human keratinocyte cell line' and 'HEK 293 cells'; vector pcDNA5/TO (Invitrogen Cat# V1033-20); expression induced with doxycycline
Test: Calcium uptake assay (FLIPR), inhibition of agonist-induced calcium influx in cells expressing hVR1
Type: cell-based
Settings: cells expressing human VR1, 2 or 30 min pre-incubation
Experimental: The syntheses of these representative compounds were carried out in accordance with the methods set forth above, and activity of the compounds was measured by percent inhibition in a calcium uptake assay, the details of which are described below.
Functional activity of compounds against the VR1 receptor was determined by measuring changes in intracellular calcium in HEK 293 cells expressing hVR1. Compounds were examined for their ability to inhibit agonist-induced calcium influx. Relative levels of [Ca^2+] were monitored in a 96-well format using a calcium-sensitive fluorescence dye and a FLIPR TETRA, Molecular Devices.
Cells that express high levels of VR1 were obtained by generation of a cell line from human keratinocytes with heterologous expression of VR1 under control of an inducible promoter. Specifically, cells expressing human VR1 under the control of the human cytomegalovirus immediate-early (CMV) promoter and two tetracycline operator 2 (TetO2) sites were made using the T-REx System (Invitrogen, Carlsbad, Calif., USA). Details and methods concerning this system are published (Hum. Gene Ther. 9, pp. 1939-1950, 1998; Annu. Rev. Microbiol. 48, pp. 345-369, 1994; Mol. Biol. 169, pp. 707-721, 1983). Human VR1 was subcloned into the T-REx System pcDNA5/TO vector (Invitrogen Cat# V1033-20) which was transfected into the T-REx System human keratinocyte cell line (Invitrogen Cat# R710-07) from which a stable cell line was established which expresses VR1 after induction by exposure to tetracycline or doxycycline (Hum. Gene Ther. 9, pp. 1939-1950, 1998; instructions that come with purchase of products noted above). Cells were maintained in a CO2 incubator (5% CO2) at 37° C. in culture medium containing DMEM with phenol red (Mediatech Cat #: 15-017-CV) supplemented with 10% heat-inactivated Fetal Bovine Serum, 5% Penicillin-streptomycin (Mediatech Cat #: 30-002-CI), 5% Glutamax® (L-Alanyl-L-Glutamine, Mediateach Cat #: 25-015-CI), 200 μg/ml hygromycin (Mediatech #:30-240-CR), 0.5 μg/ml blasticidin (Invitrogen #46-1120)).
For assay preparation, cells expressing human VR1 as described above were plated in 96-well plates (Becton Dickinson [BD] poly-D-lysine coated 96-well plates, cat#356692) at 55,000 cells per well in culture media (described above) that also contained 1 ug/ml doxycycline. Plated cells were then placed in an incubator (5% CO2) and incubated for 20-26 hours at 37° C., until the cells had grown to near confluency. Media was then aspirated from cells and 50 uL of dye-containing buffer (from Molecular Devices FLIPR Calcuim 4 Assay kit, cat# R8141) was added to each well. Cells were then left in the dark at room temperature for 1.5-2 hours. Cell plates were then placed in the FLIPR TETRA (Molecular Devices, CA, USA). Test compounds and agonists were added to wells using the liquid handling capability of the FLIPR TETRA. Calcuim responses of the cells were monitored by fluorescence readout of dye signal. Test compounds in saline (130 mM NaCl, 17 g/L sucrose, 1.8 g/L glucose, 8.8 mM HEPES, 3 mM KCl, 0.60 mM MgCl, 1.0 mM CaCl2; adjust to pH 7.4 using NaOH; 0.03% BSA added on the day of the experiment), or vehicle control in saline, were pre-incubated at the desired final concentrations in the dark at room temperature for 2 or 30 minutes with cells already containing the above mentioned dye buffer (dye solution was diluted 1:1 in culture wells with saline containing 2× the final concentration of test compound). […] Another agonist was protons via a low pH solution (saline solution described above plus 10 mM citric acid buffered to pH 5.7 with HCl instead of buffering to a neutral pH with NaOH as done for normal saline). Compounds were tested at various concentration ranges, depending upon potency of compound.

[1] = IC50 (nM) Capsaicin, agonist capsaicin at 10 nM or its EC50
[2] = agonist protons, low pH solution pH 5.7, read-out: IC50 (nM) Low pH
[3] = read-out: IC50 (nM) Capsaicin, agonist capsaicin at 10 nM or its EC50

T1 sequence (Q8NER1 whole entry): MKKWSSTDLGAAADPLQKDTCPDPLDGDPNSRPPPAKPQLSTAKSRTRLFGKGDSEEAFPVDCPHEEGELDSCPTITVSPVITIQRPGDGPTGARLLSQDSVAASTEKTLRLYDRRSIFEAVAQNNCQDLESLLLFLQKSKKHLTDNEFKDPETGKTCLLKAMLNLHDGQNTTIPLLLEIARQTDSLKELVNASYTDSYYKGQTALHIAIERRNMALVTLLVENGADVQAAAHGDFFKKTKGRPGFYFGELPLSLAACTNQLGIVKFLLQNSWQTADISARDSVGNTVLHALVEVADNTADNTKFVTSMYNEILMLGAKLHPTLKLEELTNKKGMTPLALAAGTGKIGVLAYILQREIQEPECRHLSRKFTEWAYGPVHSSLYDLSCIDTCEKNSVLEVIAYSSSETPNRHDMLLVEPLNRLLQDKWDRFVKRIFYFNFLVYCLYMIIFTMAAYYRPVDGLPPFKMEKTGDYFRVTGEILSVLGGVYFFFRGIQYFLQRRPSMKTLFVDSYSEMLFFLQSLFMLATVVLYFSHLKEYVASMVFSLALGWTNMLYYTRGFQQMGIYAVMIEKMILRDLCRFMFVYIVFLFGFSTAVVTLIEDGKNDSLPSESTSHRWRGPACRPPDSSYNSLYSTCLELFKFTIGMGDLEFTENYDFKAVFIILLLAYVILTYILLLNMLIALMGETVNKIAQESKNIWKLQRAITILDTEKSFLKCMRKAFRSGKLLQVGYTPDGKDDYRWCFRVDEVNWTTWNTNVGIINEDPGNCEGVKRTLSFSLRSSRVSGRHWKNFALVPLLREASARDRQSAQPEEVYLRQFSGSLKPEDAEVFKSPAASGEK

Compound: COc1ccc2c(c1)CCC(C(=O)N[C@H](C)c1cc(C)c(NS(C)(=O)=O)cc1F)C2C (some centres unmarked) [Example 5]
- IC50 [1]: 101 to 500 nM
- IC50 [2]: > 1000 nM

Compound: Cc1cc([C@@H](C)NC(=O)[C@H]2COc3ccc(C(F)(F)F)cc3O2)c(F)cc1NS(C)(=O)=O [Example 17, (R)—N—((R)-1-(2-fluoro-5-methyl-4-(methylsulfonamido)phenyl)ethyl)-7-(trifluoromethyl)-2,3-dihydrobenzo[b][1,4]dioxine-2-carboxamide]
- IC50 [1]: < 100 nM

Compound: (R)—N—((R)-1-(2-fluoro-5-methyl-4-(methylsulfonamido)phenyl)ethyl)-6-(trifluoromethyl)-2,3-dihydrobenzo[b][1,4]dioxine-2-carboxamide [Example 18]
- IC50 [3]: < 100 nM

Compound: Cc1cc([C@@H](C)NC(=O)[C@@H]2CCc3nc(C(C)(C)C(F)(F)F)ccc3C2)c(F)cc1NS(C)(=O)=O [Example 9, (R)—N—((R)-1-(2-Fluoro-5-methyl-4-(methylsulfonamido)phenyl)ethyl)-2-(1,1,1-trifluoro-2-methylpropan-2-yl)-5,6,7,8-tetrahydroquinoline-6-carboxamide]
- IC50 [2]: < 100 nM

Compound: Cc1cc([C@@H](C)NC(=O)C2COc3nc(C(F)(F)F)ccc3O2)c(F)cc1NS(C)(=O)=O (stereo partly drawn) [Example 21, 6-trifluoromethyl-2,3-dihydro[1,4]dioxino[2,3-b]pyridine-2-carboxylic acid [(R)-1-(2-fluoro-4-methanesulfonylamino-5-methylphenyl)ethyl]amide]
- IC50 [1]: 101 to 500 nM

Compound: C[C@@H](NC(=O)[C@H]1COc2cc(C(F)(F)F)ccc2O1)c1ccc(NS(C)(=O)=O)c(F)c1 [Example 22, (R)-6-Trifluoromethyl-2,3-dihydrobenzo[1,4]dioxine-2-carboxylic acid [(R)-1-(3-fluoro-4-methanesulfonylaminophenyl)ethyl]amide]
- IC50 [1]: < 100 nM

Compound: COC(C)(C)c1ccc2c(n1)CC[C@H](C(=O)N[C@H](C)c1cc(C)c(NS(C)(=O)=O)cc1F)C2 (single isomer, unassigned) [Example 15]
- IC50 [1]: < 100 nM
- IC50 [2]: < 100 nM

Compound: Cc1cc([C@@H](C)NC(=O)[C@H]2CCc3nc(C(C)(C)C(F)(F)F)ccc3C2)c(F)cc1NS(C)(=O)=O [Example 10, (S)—N—((R)-1-(2-Fluoro-5-methyl-4-(methylsulfonamido)phenyl)ethyl)-2-(1,1,1-trifluoro-2-methylpropan-2-yl)-5,6,7,8-tetrahydroquinoline-6-carboxamide]
- IC50 [3]: < 100 nM

Compound: Cc1cc([C@@H](C)NC(=O)C2=Cc3cc(Cl)ccc3OC2)c(F)cc1NS(C)(=O)=O [Example 4]
- IC50 [1]: < 100 nM
- IC50 [2]: < 100 nM

Compound: C[C@@H](NC(=O)[C@H]1COc2cc(C(F)(F)F)ccc2O1)c1ccc(NS(C)(=O)=O)c(Cl)c1 [Example 23]
- IC50 [1]: < 100 nM

Compound: COC(C)(C)c1ccc2c(n1)CC[C@@H](C(=O)N[C@H](C)c1cc(C)c(NS(C)(=O)=O)cc1F)C2 (single isomer, unassigned) [Example 14]
- IC50 [1]: 101 to 500 nM
- IC50 [2]: 101 to 500 nM

Compound: COc1ccc2c(c1)CCC(C(=O)NC(C)c1cc(C)c(NS(C)(=O)=O)cc1F)C2 (centres unmarked) [Example 11, 6-Methoxy-1,2,3,4-tetrahydro-naphthalene-2-carboxylic acid [1-(2-fluoro-4-methanesulfonylamino-5-methyl-phenyl)-ethyl]-amide]
- IC50 [1]: 101 to 500 nM

Compound: Cc1cc([C@@H](C)NC(=O)C2=Cc3ccccc3OC2)c(F)cc1NS(C)(=O)=O [Example 1, (R)—N-(1-(2-Fluoro-5-methyl-4-(methylsulfonamido)phenyl)ethyl)-2h-chromene-3-carboxamide]
- IC50 [1]: < 100 nM
- IC50 [2]: 101 to 500 nM

Compound: Cc1cc([C@@H](C)NC(=O)C2COc3ccc(Cl)cc3C2)c(F)cc1NS(C)(=O)=O (some centres unmarked) [Example 6]
- IC50 [1]: < 100 nM
- IC50 [2]: < 100 nM

Compound: Cc1cc([C@@H](C)NC(=O)C2CCc3nc(C(F)(F)F)ccc3C2)c(F)cc1NS(C)(=O)=O (stereo partly drawn) [Example 12, N—((R)-1-(2-Fluoro-5-methyl-4-(methylsulfonamido)phenyl)ethyl)-2-(trifluoromethyl)-5,6,7,8-tetrahydroquinoline-6-carboxamide]
- IC50 [1]: < 100 nM

Compound: Cc1cc([C@@H](C)NC(=O)[C@@H]2COc3ccc(C(F)(F)F)cc3O2)c(F)cc1NS(C)(=O)=O [Example 19, (S)—N—((R)-1-(2-fluoro-5-methyl-4-(methylsulfonamido)phenyl)ethyl)-7-(trifluoromethyl)-2,3-dihydrobenzo[b][1,4]dioxine-2-carboxamide]
- IC50 [1]: 101 to 500 nM

Compound: Cc1cc([C@@H](C)NC(=O)C2CCc3nc(C(C)(C)O)ccc3C2)c(F)cc1NS(C)(=O)=O (stereo partly drawn) [Example 13, N—((R)-1-(2-fluoro-5-methyl-4-(methylsulfonamido)phenyl)ethyl)-2-(2-hydroxypropan-2-yl)-5,6,7,8-tetrahydroquinoline-6-carboxamide]
- IC50 [1]: 101 to 500 nM

Compound: Cc1cc([C@@H](C)NC(=O)[C@@H]2COc3cc(C(F)(F)F)ccc3O2)c(F)cc1NS(C)(=O)=O [Example 16, (S)—N—((R)-1-(2-fluoro-5-methyl-4-(methylsulfonamido)phenyl)ethyl)-6-(trifluoromethyl)-2,3-dihydrobenzo[b][1,4]dioxine-2-carboxamide]
- IC50 [1]: 101 to 500 nM

Compound: Cc1cc([C@@H](C)NC(=O)C2CCc3ccccc3C2)c(F)cc1NS(C)(=O)=O (some centres unmarked) [Example 3, 1,2,3,4-Tetrahydronaphthalene-2-carboxylic acid f(r)-1-(2-fluoro-4-methanesulfonylamino-5-methylphenyl)ethylamide]
- IC50 [1]: < 100 nM
- IC50 [2]: 101 to 500 nM

Compound: Cc1cc([C@@H](C)NC(=O)[C@H]2CCc3nc(C4(C)OCCO4)ccc3C2)c(F)cc1NS(C)(=O)=O [Example 20, (S)—N—((R)-1-(2-fluoro-5-methyl-4-(methylsulfonamido)phenyl)ethyl)-2-(2-methyl-1,3-dioxolan-2-yl)-5,6,7,8-tetrahydroquinoline-6-carboxamide]
- IC50 [1]: 101 to 500 nM

Compound: Cc1cc([C@@H](C)NC(=O)C2CN(C)c3cc(C(F)(F)F)ccc3O2)c(F)cc1NS(C)(=O)=O (some centres unmarked) [Example 7]
- IC50 [1]: < 100 nM
- IC50 [2]: < 100 nM

Compound: Cc1cc([C@@H](C)NC(=O)C2CCc3nc(C(C)(C)C(F)(F)F)ccc3C2)c(F)cc1NS(C)(=O)=O (stereo partly drawn) [Example 8, N—((R)-1-(2-Fluoro-5-methyl-4-(methylsulfonamido)phenyl)ethyl)-2-(1,1,1-trifluoro-2-methylpropan-2-yl)-5,6,7,8-tetrahydroquinoline-6-carboxamide]
- IC50 [1]: < 100 nM

Compound: Cc1cc([C@@H](C)NC(=O)C2CCc3ccccc3O2)c(F)cc1NS(C)(=O)=O (some centres unmarked) [Example 2]
- IC50 [1]: 101 to 500 nM
- IC50 [2]: > 1000 nM
